Like-named read-outs stand apart in the source and are kept apart here.
Columns and labels:
[1] = molecular target: T1, SasG lectin domain (Staphylococcus aureus, UniProt Q2G2B2); assay: ITC; type: binding; conditions: pH 7.2, 50 mM phosphate, 150 mM NaCl, 25 °C
T1 sequence (Q2G2B2 163-419): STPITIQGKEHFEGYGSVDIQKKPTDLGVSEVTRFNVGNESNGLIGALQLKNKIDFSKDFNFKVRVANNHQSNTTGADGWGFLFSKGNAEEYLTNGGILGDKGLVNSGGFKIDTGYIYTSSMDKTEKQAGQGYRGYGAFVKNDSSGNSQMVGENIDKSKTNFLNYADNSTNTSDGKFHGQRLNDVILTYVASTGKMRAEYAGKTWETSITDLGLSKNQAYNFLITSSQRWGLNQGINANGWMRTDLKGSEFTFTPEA

[2] = molecular target: T2, Aap lectin domain (Staphylococcus epidermidis, UniProt Q5HKE8); assay: ITC; type: binding; conditions: pH 7.2, 50 mM phosphate, 150 mM NaCl, 25 °C
T2 sequence (Q5HKE8 351-605): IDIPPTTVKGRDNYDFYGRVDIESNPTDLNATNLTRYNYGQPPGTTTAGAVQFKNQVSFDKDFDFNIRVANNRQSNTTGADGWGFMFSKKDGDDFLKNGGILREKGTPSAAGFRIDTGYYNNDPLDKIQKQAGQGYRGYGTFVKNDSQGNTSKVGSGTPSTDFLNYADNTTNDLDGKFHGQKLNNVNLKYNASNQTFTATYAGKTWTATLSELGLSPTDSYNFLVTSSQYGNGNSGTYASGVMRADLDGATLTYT

Compound | ITC [1] | Kd ([2]; read-out: affinity) | Kd [2]
CC(=O)N[C@H]1C(O)O[C@H](CO)[C@@H](O[C@@H]2O[C@H](CO)[C@H](O)[C@H](O)[C@H]2O)[C@@H]1O (stereo partly drawn) [N-acetyllactosamine] | We confirmed that SasG lectin is able to bind N-acetyllactosamine by ITC | ~130 µM | 
CC(=O)N[C@H]1[C@H]([C@H](O)[C@H](O)CO)O[C@@](O[C@H]2[C@@H](O)[C@@H](CO)O[C@@H](O[C@H]3[C@H](O)[C@@H](NC(C)=O)C(O)O[C@@H]3CO)[C@@H]2O)(C(=O)O)C[C@@H]1O (stereo partly drawn) [3'-sialyl-N-acetyllactosamine] |  |  | 13 µM

Source: article PMC9900903 (bioRxiv, 2023)
